Measurements published in patent US11802120B2, “Fused cyclic urea derivatives as CRHR2 antagonist” (RaQualia Pharma Inc., priority 2018, dated 2023).

Target: T1, human CRHR2-alpha (Homo sapiens, UniProt Q13324)
T1 sequence (Q13324 1-411): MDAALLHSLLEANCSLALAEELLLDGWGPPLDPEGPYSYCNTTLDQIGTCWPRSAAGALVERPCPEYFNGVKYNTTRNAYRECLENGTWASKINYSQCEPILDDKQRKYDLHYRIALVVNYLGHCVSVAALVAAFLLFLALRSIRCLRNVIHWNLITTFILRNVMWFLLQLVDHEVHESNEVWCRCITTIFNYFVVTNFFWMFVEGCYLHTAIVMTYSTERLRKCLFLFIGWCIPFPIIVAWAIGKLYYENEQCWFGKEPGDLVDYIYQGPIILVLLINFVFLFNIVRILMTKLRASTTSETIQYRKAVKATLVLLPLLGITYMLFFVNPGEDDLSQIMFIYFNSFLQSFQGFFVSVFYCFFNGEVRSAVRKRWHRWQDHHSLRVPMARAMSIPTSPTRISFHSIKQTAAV
Assay: cAMP functional assay for human CRHR2 (LANCE Ultra cAMP, TR-FRET)
Type: cell-based
Conditions: CHO-K1 cells expressing human CRHR2-alpha, agonist human urocortin2 at EC80, cAMP; read-out: IC50 against CRHR2
How it was run: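 Antagonism measured in CHO-K1 cells stably expressing the receptor, serum-starved 7 h then cryopreserved. Thawed cells in HBSS buffer with 0.1% BSA, 0.5 mM IBMX, 5 mM Hepes pH 7.4 were preincubated with compound 30 min at 25° C, then stimulated 30 min with EC80 agonist: urocortin2 for CRHR2, CRF for CRHR1.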

| SMILES | IC50 [nM] |
| --- | --- |
| Cc1noc2cc(-n3c(=O)n(C[C@H]4CC[C@H](NC(=O)c5cc(Cl)cnc5C(F)F)CC4)c4cccnc43)ccc12 [Example 583, 5-chloro-2-(difluoromethyl)-N-((1r,4r)-4-((3-(3-methyl-benzo[d]isoxazol-6-yl)-2-oxo-2,3-dihydro-1H-imidazo [4,5-b]pyridin-1-yl)methyl)cyclohexyl)nicotinamide] | < 300 |
| O=C(N[C@H]1CC[C@H](Cn2c(=O)n(-c3ccc4c(c3)nnn4CCO)c3ccccc32)CC1)c1cc(Cl)cnc1C(F)F [Example 385, 5-chloro-2-(difluoromethyl)-N-((1r,4r)-4-((3-(1-(2-hydroxyethyl)-1H-benzo[d][1,2,3]triazol-5-yl)-2-oxo-2,3-dihydro-1H-benzo[d]imidazol-1-yl)methyl)cyclohexyl)nicotinamide] | < 300 |
| Cc1ncc(Cl)cc1C(=O)N[C@H]1CC[C@H](Cn2c(=O)n(-c3cccnc3C#N)c3ccccc32)CC1 [Example 239, 5-chloro-N-((1r,4r)-4-((3-(2-cyanopyridin-3-yl)-2-oxo-2,3-dihydro-1H-benzo[d]imidazol-1-yl)methyl)cyclohexyl)-2-methylnicotinamide] | < 300 |
| O=C(N[C@H]1CC[C@H](Cn2c(=O)n(-c3cnc4[nH]ccc4c3)c3ccccc32)CC1)c1cc(Cl)cnc1C(F)(F)F [Example 424, 5-chloro-N-((1r,4r)-4-((2-oxo-3-(1H-pyrrolo[2,3-b]pyridin-5-yl)-2,3-dihydro-1H-benzo [d]imidazol-1-yl)methyl)cyclo-hexyl)-2-(trifluoromethyl) nicotinamide] | < 300 |
| Cn1cc2c(-n3c(=O)n(C[C@H]4CC[C@H](NC(=O)c5cc(Cl)cnc5C(F)F)CC4)c4ccccc43)cccc2n1 [Example 421, 5-chloro-2-(difluoromethyl)-N-((1r,4r)-4-((3-(2-methyl-2H-indazol-4-yl)-2-oxo-2,3-dihydro-1H-benzo[d]imidazol-1-yl)methyl)cyclohexyl)nicotinamide] | < 300 |
| Cc1ncc(Cl)cc1C(=O)N[C@H]1CC[C@H](Cn2c(=O)n(-c3ccc4cnccc4c3)c3ccccc32)CC1 [Example 371, 5-chloro-N-((1r,4r)-4-((3-(isoquinolin-6-yl)-2-oxo-2,3-dihydro-1H-benzo[d]imidazol-1-yl)methyl)cyclo-hexyl)-2-methylnicotinamide] | < 300 |
| O=C(N[C@H]1CC[C@H](Cn2c(=O)n(-c3cncc4ccccc34)c3ccccc32)CC1)c1cc(Cl)cnc1C(F)(F)F [Example 354, 5-chloro-N-((1r,4r)-4-((3-(isoquinolin-4-yl)-2-oxo-2,3-dihydro-1H-benzo[d]imidazol-1-yl)methyl)cyclo-hexyl)-2-(trifluoromethyl) nicotinamide] | < 300 |
| Cc1ncc(Cl)cc1C(=O)N[C@H]1CC[C@H](Cn2c(=O)n(-c3ccc(-c4cn[nH]c4)cc3)c3ccccc32)CC1 [Example 581, N-((1r,4r)-4-((3-(4-(1H-pyrazol-4-yl)phenyl)-2-oxo-2,3-dihydro-1H-benzo[d]imidazol-1-yl)methyl)cyclohexyl)-5-chloro-2-methylnicotinamide] | < 300 |
| Cc1ccc(-n2c(=O)n(C[C@H]3CC[C@H](NC(=O)c4cc(Cl)cnc4C(F)(F)F)CC3)c3ccccc32)c(C)n1 [Example 315, 5-chloro-N-((1r,4r)-4-((3-(2,6-dimethylpyridin-3-yl)-2-oxo-2,3-dihydro-1H-benzo [d]imidazol-1-yl)methyl)cyclohexyl)-2-(trifluoro-methyl)nicotinamide] | < 300 |
| Cn1ccc(-c2ccc(-n3c(=O)n(C[C@H]4CC[C@H](NC(=O)c5cc(Cl)cnc5C(F)F)CC4)c4ccccc43)cn2)n1 [Example 737, 5-chloro-2-(difluoromethyl)-N-((1r,4r)-4-((3-(6-(1-methyl-1H-pyrazol-3-yl)pyridin-3-yl)-2-oxo-2,3-dihydro-1H-benzo[d]imidazol-1-yl)methyl)cyclohexyl)nicotinamide] | < 300 |
| O=C(N[C@H]1CC[C@H](Cn2c(=O)n(Cc3cscn3)c3ccccc32)CC1)c1cc(Cl)cnc1C(F)(F)F [Example 314, 5-chloro-N-((1r,4r)-4-((2-oxo-3-(thiazol-4-ylmethyl)-2,3-dihydro-1H-benzo[d]imidazol-1-yl)methyl)cyclo-hexyl)-2-(trifluoromethyl) nicotinamide] | < 300 |
| O=C(N[C@H]1CC[C@H](Cn2c(=O)n(-c3ccc(NCCO)nc3)c3ccc(F)cc32)CC1)c1cc(Cl)cnc1C(F)F [Example 713, 5-chloro-2-(difluoromethyl)-N-((1r,4r)-4-((6-fluoro-3-(6-((2-hydroxyethyl)amino)pyridin-3-yl)-2-oxo-2,3-di-hydro-1H-benzo[d]imidazol-1-yl)methyl)cyclohexyl) nicotinamide] | < 300 |
| Cc1ncc(Cl)cc1C(=O)N[C@H]1CC[C@H](Cn2c(=O)n(-c3ccc(-c4cocn4)cc3)c3ccccc32)CC1 [Example 635, 5-chloro-2-methyl-N-((1r,4r)-4-((3-(4-(oxazol-4-yl)phenyl)-2-oxo-2,3-dihydro-1H-benzo [d]imidazol-1-yl)methyl)cyclo-hexyl)nicotinamide] | < 300 |

More lines, now with the values ahead:

| IC50 [nM] | SMILES |
| --- | --- |
| < 300 | COc1cc(-n2c(=O)n(C[C@H]3CC[C@H](NC(=O)c4cc(Cl)cnc4C(F)F)CC3)c3cccnc32)ccc1F [Example 399, 5-chloro-2-(difluoromethyl)-N-((1r,4r)-4-((3-(4-fluoro-3-methoxyphenyl)-2-oxo-2,3-dihydro-1H-imidazo[4,5-b]pyridin-1-yl)methyl)cyclo-hexyl)nicotinamide] |
| < 300 | CNc1ccc(-n2c(=O)n(C[C@H]3CC[C@H](NC(=O)c4cc(Cl)cnc4C(F)F)CC3)c3ccccc32)nc1 [Example 660, 5-chloro-2-(difluoromethyl)-N-((1r,4r)-4-((3-(5-(methylamino)pyridin-2-yl)-2-oxo-2,3-dihydro-1H-benzo[d]imidazol-1-yl)methyl)cyclohexyl)nicotinamide] |
| < 300 | CC(=O)Nc1cc(C)c(-n2c(=O)n(C[C@H]3CC[C@H](NC(=O)c4cc(Cl)cnc4C(F)F)CC3)c3ccccc32)cn1 [Example 559, N-((1r,4r)-4-((3-(6-acetamido-4-methylpyridin-3-yl)-2-oxo-2,3-dihydro-1H-benzo[d]imidazol-1-yl)methyl)cyclo-hexyl)-5-chloro-2-(difluoro-methyl)nicotinamide] |
| < 300 | Cc1ncc(Cl)cc1C(=O)N[C@H]1CC[C@H](Cn2c(=O)n(-c3cccc4cnccc34)c3ccccc32)CC1 [Example 343, 5-chloro-N-((1r,4r)-4-((3-(isoquinolin-5-yl)-2-oxo-2,3-dihydro-1H-benzo[d]imidazol-1-yl)methyl)cyclo-hexyl)-2-methylnicotinamide] |
| < 300 | Cc1ccc(-n2c(=O)n(C[C@H]3CC[C@H](NC(=O)c4cc(Cl)cnc4C)CC3)c3ccccc32)c(C#N)c1 [Example 247, 5-chloro-N-((1r,4r)-4-((3-(2-cyano-4-methylphenyl)-2-oxo-2,3-dihydro-1H-benzo[d]imidazol-1-yl)methyl)cyclo-hexyl)-2-methylnicotinamide] |
| < 300 | Cc1ncc(Cl)cc1C(=O)N[C@H]1CC[C@H](Cn2c(=O)n(-c3ccc4cncn4c3)c3ccccc32)CC1 [Example 274, 5-chloro-N-((1r,4r)-4-((3-(imidazo[1,5-a]pyridin-6-yl)-2-oxo-2,3-dihydro-1H-benzo [d]imidazol-1-yl)methyl)cyclohexyl)-2-methylnico-tinamide] |
| < 300 | Cc1ncc(Cl)cc1C(=O)N[C@H]1CC[C@H](Cn2c(=O)n(-c3ccc4c(c3)cc(C(N)=O)n4C)c3ccccc32)CC1 [Example 403, 5-(3-(((1r,4r)-4-(5-chloro-2-methylnicotinamido)cyclo-hexyl)methyl)-2-oxo-2,3-dihydro-1H-benzo[d]imidazol-1-yl)-1-methyl-1H-indole-2-carboxamide] |
| < 300 | CNc1ncc(-n2c(=O)n(C[C@H]3CC[C@H](NC(=O)c4cc(Cl)cnc4C)CC3)c3ccccc32)cc1F [Example 552, 5-chloro-N-((1r,4r)-4-((3-(5-fluoro-6-(methylamino)pyridin-3-yl)-2-oxo-2,3-dihydro-1H-benzo[d]imidazol-1-yl)methyl)cyclohexyl)-2-methylnicotinamide] |
| < 300 | Cc1ncc(Cl)cc1C(=O)N[C@H]1CC[C@H](Cn2c(=O)n(-c3cccc(N4CCNC4=O)n3)c3ccccc32)CC1 [Example 772, 5-chloro-2-methyl-N-((1r,4r)-4-((2-oxo-3-(6-(2-oxo-imidazolidin-1-yl)pyridin-2-yl)-2,3-dihydro-1H-benzo [d]imidazol-1-yl)methyl)cyclohexyl)nicotinamide] |
| < 300 | Cc1ncc(Cl)cc1C(=O)N[C@H]1CC[C@H](Cn2c(=O)n(-c3ccc4c(N)noc4c3)c3ccccc32)CC1 [Example 198, N-((1r,4r)-4-((3-(3-aminobenzo[d]isoxazol-6-yl)-2-oxo-2,3-dihydro-1H-benzo[d]imidazol-1-yl)methyl)cyclohexyl)-5-chloro-2-methylnicotinamide] |
| < 300 | Cc1ncc(Cl)cc1C(=O)N[C@H]1CC[C@H](Cn2c(=O)n(-c3ccccc3[N+](=O)[O-])c3ccccc32)CC1 [Example 233, 5-chloro-2-methyl-N-((1r,4r)-4-((3-(2-nitrophenyl)-2-oxo-2,3-dihydro-1H-benzo[d]imidazol-1-yl)methyl)cyclo-hexyl)nicotinamide] |
